Reference: patent US10533015B1, “Opioid receptor antagonist prodrugs” (Nirsum Laboratories, Inc., priority 2019, dated 2020)
Like-named read-outs stand apart in the source and are kept apart here.

Settings: for Equilibrium solubility (mg/mL) Water: heating temp. 40 °C, obs. temp. 40 °C
[1] = heating temp. 60 °C, obs. temp. 25 °C

| SMILES | Approximate Solubility (mg/mL) in Excipient: Cottonseed oil [1] | Equilibrium solubility (mg/mL) Water | Solubility by volumetric flask method: Cottonseed oil (Volumetric flask method, cottonseed oil, heating temp. 60 °C, obs. temp. 25 °C) | Solubility by volumetric flask method: Sesame oil (Volumetric flask method, sesame oil, heating temp. 60 °C, obs. temp. 25 °C) | Equilibrium solubility (mg/mL) Water (section 'Solubility by volumetric flask method') | Approximate Solubility (mg/mL) in Excipient: Sesame oil [1] |
| --- | --- | --- | --- | --- | --- | --- |
| CCCCCCCCCCCCCCCCOC(=O)OCOc1ccc2c3c1O[C@H]1C(=O)CC[C@@]4(O)C(C2)N(CC2CC2)CC[C@]314 [Compound 47, (((4aS,7aR,12bS)-3-(cyclopropylmethyl)-4a-hydroxy-7-oxo-2,3,4,4a,5,6,7,7a-octahydro-1H-4,12-methanobenzofuro[3,2-e]isoquinolin-9-yl)oxy)methyl hexadecyl carbonate] | >405.5 mg/mL | <0.001 mg/mL | – | – | – | – |
| C=C1CC[C@@]2(O)C3Cc4ccc(OC(=O)OCCCCCCCCCCC)c5c4[C@@]2(CCN3CC2CC2)[C@H]1O5 [Compound 3, (4aS,7aS,12bS)-3-(cyclopropylmethyl)-4a-hydroxy-7-methylene-2,3,4,4a,5,6,7,7a-octahydro-1H-4,12-methanobenzofuro[3,2-e]isoquinolin-9-yl undecyl carbonate] | – | – | >399.12 mg/mL | >400.7 mg/mL | <0.001 mg/mL | – |
| CCCCCCCCCCCCCCCC(=O)OCOc1ccc2c3c1O[C@H]1C(=O)CC[C@@]4(O)C(C2)N(CC2CC2)CC[C@]314 [Compound 49, (((4aS,7aR,12bS)-3-(cyclopropylmethyl)-4a-hydroxy-7-oxo-2,3,4,4a,5,6,7,7a-octahydro-1H-4,12-methanobenzofuro[3,2-e]isoquinolin-9-yl)oxy)methyl hexadecanoate] | <50 mg/mL | – | – | – | – | <51 mg/mL |
| CCCCCCCCCCCCOC(=O)OCOc1ccc2c3c1O[C@H]1C(=O)CC[C@@]4(O)C(C2)N(CC2CC2)CC[C@]314 [Compound 29, (((4aS,7aR,12bS)-3-(cyclopropylmethyl)-4a-hydroxy-7-oxo-2,3,4,4a,5,6,7,7a-octahydro-1H-4,12-methanobenzofuro[3,2-e]isoquinolin-9-yl)oxy)methyl dodecyl carbonate] | >410.2 mg/mL | <0.001 mg/mL | – | – | – | >416.5 mg/mL |
